Assay results taken from paper PMC12548382, “Discovery of a potent covalent inhibitor that unusually distorts the catalytic dyad of SARS-CoV-2 main protease” (Journal of Virology, 2025).

Columns and labels:
SARS-CoV-2 = SARS-CoV-2 viral load reduction assay in VeroE6 cells; assay type: cell-based; conditions: 10 µM, MOI 0.1, 48 hpi, qRT-PCR of supernatant
Experimental: Fig 3 In vitro antiviral activity of selected compounds. VeroE6 cells were infected with SARS-CoV-2 (multiplicity of infection [MOI] of 0.1) and treated with various concentrations of H102, PF-07321332, GC376, or vehicle control. Viral RNA load in the cell culture supernatant samples was quantified by qRT-PCR. All experiments were performed in triplicate, and the values are presented as mean ± SD. P-values were calculated using Student’s t-test to compare each compound candidate with vehicle control. *P < 0.05.
Viral load reduction assay was performed for the evaluation of antiviral activity as we described previously ([34]). Briefly, SARS-CoV-2-infected VeroE6 cells were treated with different concentrations of compounds or dimethyl sulfoxide (DMSO) control. Then, cell culture supernatant samples were collected at 48 h post-inoculation (hpi) for qRT-PCR analysis of viral RNA load. Culture supernatant was lysed with buffer AVL and then extracted for total RNA with the QIAamp viral RNA mini kit (Qiagen). qRT-PCR was used for quantitation of SARS-CoV-2 viral load using the QuantiNova Probe RT-PCR kit (Qiagen) with a LightCycler 480 Real-Time PCR System (Roche). […]

SARS-CoV-2 M^pro = SARS-CoV-2 M^pro (Severe acute respiratory syndrome coronavirus 2, UniProt P0DTD1); experiment: SARS-CoV-2 M^pro enzyme inhibition assay (FRET substrate); assay type: biochemical; conditions: for IC50: 150 nM enzyme, 30 min preincubation, 25 µM substrate, mean ± SD
SARS-CoV M^pro = SARS-CoV M^pro ref 27; cited from earlier work

Row | Structure (SMILES) | IC50 (SARS-CoV-2 M^pro) [µM] | further results
1 | CC(C)C[C@H](NC(=O)OCc1ccccc1)C(=O)N[C@@H](C[C@@H]1CCNC1=O)C(O)S(=O)(=O)[O-].[Na+] (some centres unmarked) [GC376] | – | reduction in viral RNA load (SARS-CoV-2): 3.93 log10
2 | COc1ccc(C[C@H](NC(=O)[C@H](C)NC(=O)OC(C)(C)C)C(=O)N[C@@H](C[C@@H]2CCNC2=O)C(=O)C(=O)Nc2cccc(C(C)=O)c2)cc1 [H94] | 24.8 ± 2.3 | –
3 | COc1ccc(C[C@H](NC(=O)[C@H](C)NC(=O)c2cnc(-c3ccc(C(C)=O)cc3)s2)C(=O)N[C@@H](C[C@@H]2CCNC2=O)C(=O)C(=O)Nc2cccc(C(C)=O)c2)cc1 [H96] | 9.4 ± 3 | increase in M^pro inhibitory potency compared to compound 17 (SARS-CoV-2 M^pro; vs compound 17): > 10 fold
4 | COc1ccc(C[C@H](NC(=O)[C@@H](NC(=O)OC(C)(C)C)C(C)(C)C)C(=O)N[C@@H](C[C@@H]2CCNC2=O)C(=O)C(=O)Nc2cccc(C(C)=O)c2)cc1 [H97] | 6.3 ± 2.7 | –
5 | COc1ccc(C[C@H](NC(=O)[C@@H](NC(=O)OC(C)(C)C)C(C)C)C(=O)N[C@@H](C[C@@H]2CCNC2=O)C(=O)C(=O)Nc2cccc(C(C)=O)c2)cc1 [H98] | 8.7 ± 2.5 | –
6 | COc1ccc(C[C@H](NC(=O)[C@H](CC(C)C)NC(=O)OC(C)(C)C)C(=O)N[C@@H](C[C@@H]2CCNC2=O)C(=O)C(=O)Nc2cccc(C(C)=O)c2)cc1 [H99] | 9.9 ± 4.7 | –
7 | CC(=O)c1cccc(NC(=O)C(=O)[C@H](C[C@@H]2CCNC2=O)NC(=O)[C@H](CC(C)C)NC(=O)[C@@H](NC(=O)OC(C)(C)C)C(C)(C)C)c1 [H101] | 3.8 ± 0.4 | –
8 | COC[C@H](NC(=O)OC(C)(C)C)C(=O)N[C@@H](Cc1ccc(OC)cc1)C(=O)N[C@@H](C[C@@H]1CCNC1=O)C(=O)C(=O)Nc1cccc(C(C)=O)c1 [H137] | 28.9 ± 3.8 | –
9 | CC(C)(C)[C@H](NC(=O)C(F)(F)F)C(=O)N1C[C@H]2[C@@H]([C@H]1C(=O)N[C@H](C#N)C[C@@H]1CCNC1=O)C2(C)C [PF-07321332, Nirmatrelvir] | – | reduction in viral RNA load (SARS-CoV-2): 3.48 log10
10 | COC(=O)[C@H](C[C@@H]1CCNC1=O)NC(=O)OC(C)(C)C [compound 3] | – | IC50 (SARS-CoV M^pro): 0.3 µM
